Source: article PMC10821019, “F16 Hybrids Derived from Steviol or Isosteviol Are Accumulated in the Mitochondria of Tumor Cells and Overcome Drug Resistance” (Molecules, 2024)
“And” between values parts separate entries of the source, which are not always exact repeats. Equal values may be shown once.

Legend:
[1] = tested on: A2780cis (resistant derivative of A2780); assay: SRB cytotoxicity assay, A2780cis; format: cell-based, human; settings: for IC50: SRB assay, 72 h treatment, mean n = 3, SD 5-10%; for resistance index (RI): quotient IC50 values A2780cis/A2780; for drug resistance in the A2780/A2780cis model, in words: A2780cis vs A2780
Source text: (§1) All compounds were screened for their cytotoxic activity and tumor cell selectivity using our standard model, previously described, comprising a selection of human tumor cell lines representing different solid tumor entities and non-malignant human fibroblasts (CCD18Co) including the cell line pair A2780/A2780cis, a well-known model of acquired drug resistance.
(§2) Reagents were bought from commercial suppliers and used without further purification. The solvents were dried according to the usual procedures. TLC was performed on silica gel (Macherey-Nagel, detection with UV absorption; Macherey-Nagel, Düren, Germany). […] Numbering in the NMR spectra: 1–20 (diterpene core), 21–24 for O-(CH2)n-N fragment followed by the pyridinium ring, the ethenyl moiety and the indole moiety. […] IR spectra were recorded on a Perkin-Elmer Spectrum Two (UATR Two Unit, Perkin-Elmer GmbH, Rodgau, Germany). […] Both media were supplemented with 10% fetal bovine serum (Biowest, Nuaillé, France) and 1% penicillin-streptomycin (Sigma-Aldrich).
(§3) Cytotoxic activities of compounds were analyzed using the SRB cytotoxicity assay. Cells were seeded in 96-well plates and after 24 h were treated with serial dilutions of compounds for 72 h. All subsequent steps were performed according to the previously described SRB assay protocol. Dose–response curves and calculation of IC50 values, including standard deviations, were carried out using GraphPad Prism8.

[2] = tested on: A2780 (ovarian carcinoma); assay: SRB cytotoxicity assay, A2780; format: cell-based, human; settings: for selectivity index 1 (SI 1): CCD18Co/A2780; for IC50: SRB assay, 72 h treatment, mean n = 3, SD 5-10%; for tumor cell selectivity, in words: tumor cells vs non-malignant fibroblasts CCD18Co
Source text: as §1, §2, §3

[3] = SRB cytotoxicity assay, CCD18Co; format: cell-based, human; settings: human, CCD18Co non-malignant fibroblasts, 72 h treatment, mean n = 3, SD 5-10%
Source text: as §1, §2, §3

A549 (lung carcinoma) = assay: SRB cytotoxicity assay, A549; format: cell-based, human; settings: for selectivity index 2 (SI 2): CCD18Co/A549; for IC50: SRB assay, 72 h treatment, mean n = 3, SD 5-10%
Source text: as §1, §2, §3

[4] = tested on: HT29 (colorectal carcinoma); assay: SRB cytotoxicity assay, HT29; format: cell-based, human; settings: mean n = 3, SD 5-10%
Source text: as §1, §2, §3

MCF7 (breast carcinoma) = assay: SRB cytotoxicity assay, MCF7; format: cell-based, human; settings: mean n = 3, SD 5-10%
Source text: as §1, §2, §3

A549 cells = assay: Subcellular localization, live cell fluorescence imaging with AHCS2 and Hoechst 33342; format: cell-based, human; settings: 24 h, 10 µM of 5 or 1 µM of 17 or 25, together with 20 nM AHCS2, Hoechst 33342
Source text: Next, the subcellular accumulation of compounds 17 and 25 compared to 5 (F16 group) was studied, employing the fluorescent characteristics mediated by the F16 group. Expecting a mitochondrial accumulation of the compounds, our previously described strong mitochondria-targeted and NIR fluorescent agent/mitocan AHCS2 (compound 21 in ref. [4]) was used, thus enabling simultaneous analysis and direct comparison due to different fluorescence spectra.
Analysis of subcellular localization of compounds was performed in A549 cells using the established mitochondrial targeting compound AHCS2 [4] for direct comparison. For all procedures, RPMI 1640 media without phenol-red (Pan-Biotech GmbH, Aidenbach, Germany) was used. Cells were seeded in a µ-Plate 96-well black plate (ibiTreat: #1.5 polymer coverslip bottom, ibidi GmbH, Gräfelfing, Germany) at a cell density of 30.000 per well. After 24 h, cells were treated with 10 µM of compound 5 or 1 µM of compound 17 or 1 µM of compound 25, each together with 20 nM of compound AHCS2. After 24 h, Hoechst 33342 (Sigma-Aldrich) was added and live cell imaging was performed on an Axio Observer 7 (Carl Zeiss Microscopy Deutschland GmbH, Oberkochen, Germany) using the settings for Ex/Em, as follows: Hoechst 33342 (385 nm/425 nm), F16 compounds (475 nm/514 nm), AHCS2 (735 nm/785 nm). For simultaneous analysis, multiple Z-stacked images were taken and resulting pictures were reconstructed using the ZEN 3.5 pro software (Zeiss).

[5] = tested on: CCD18Co (non-malignant human fibroblasts); assay: SRB cytotoxicity assay, CCD18Co; format: cell-based; settings: 72 h treatment, mean n = 3, SD 5-10%
Source text: as §1, §2, §3

[6] = Homo sapiens, HT-29, 72 h treatment
[7] = Homo sapiens, MCF7, 72 h treatment

Compound | IC50 ([1]; Homo sapiens, A2780cis) [µM] | resistance index (RI) [1] | selectivity index 1 (SI 1) [2] | IC50 ([2]; Homo sapiens, A2780) [µM] | IC50 at 72 h [3] [µM] | selectivity index 2 (SI 2) (A549 (lung carcinoma)) | IC50 (A549 (lung carcinoma); Homo sapiens, A549) [µM] | IC50 [4, 6] [µM] | IC50 (MCF7 (breast carcinoma); [7]) [µM] | drug resistance in the A2780/A2780cis model, in words [1] | IC50 [1] [µM] | IC50 [2] [µM] | tumor cell selectivity, in words [2] | subcellular accumulation (A549 cells) | IC50 [5] [µM] | IC50 (A549 (lung carcinoma)) [µM] | IC50 ([4]; 72 h treatment) [µM] | IC50 (MCF7 (breast carcinoma); 72 h treatment) [µM] | resistance index (RI) ([1]; listed as doxorubicin) | melting point [°C]
C(=C\c1c[nH]c2ccccc12)/c1cccnc1 [Compound 4, 3-[(E)-2-Pyridin-3-yl-ethenyl]-1H-indole] | 21 | 17.97 | 77.40 | 1.17 | 90.3 | 5.50 | 16.4 | 7.83 | 5.18 | – | – | – | – | – | – | – | – | – | – | –
CC12CCC3C(CCC4C(C)(C(=O)OCCC[n+]5ccc(C=Cc6c[nH]c7ccccc67)cc5)CCCC34C)(CC1=O)C2.[Br-] (stereo not drawn) [Compound 17, 3-{4-[(E)-2-(1H-Indol-3-yl)ethenyl]-pyridinium-1-yl}-propyl (4α, 8β, 13β) 13-Methyl-16-oxo-17-norkauran-18-oate Bromide] | – | 1.07 | 71.25 | – | – | 5.88 | – | – | – | able to reduce or even overcome drug resistance | 0.3 | 0.28 | retained selectivity | preferential mitochondrial localization | 19.9 | 3.39 | 0.76 | 0.59 | – | –
COc1cccc2c1C(=O)c1c(O)c3c(c(O)c1C2=O)C[C@@](O)(C(=O)CO)C[C@@H]3O[C@H]1C[C@H](N)[C@H](O)[C@H](C)O1 [DOX, doxorubicin, reference compound] | 0.109 | 14.7 | 32.7 | 0.007 | 0.242 | 13.9 | 0.017 | 0.098 | 0.083 | – | – | – | – | – | – | – | – | – | approximately 14 | –
CC12CCC3C(CCC4C(C)(C(=O)OCCCC[n+]5ccc(C=Cc6c[nH]c7ccccc67)cc5)CCCC34C)(CC1=O)C2.[Br-] (stereo not drawn) [Compound 25, 4-{4[(E)-2-(1H-Indol-3-yl)ethenyl]-pyridinium-1-yl}butyl (4α, 8β, 13β) 13-Methyl-16-oxo-17-norkauran-18-oate Bromide] | – | 1.70 | 59 and 59.32 | – | – | 4.14 | – | – | – | able to reduce or even overcome drug resistance | 0.31 | 0.18 | retained selectivity | preferential mitochondrial localization | 10.8 | 2.62 | 0.88 | 0.49 | – | –
CC12CCC3C(CCC4C(C)(C(=O)OCCCCBr)CCCC34C)(CC1=O)C2 (stereo not drawn) [Compound 23, 4-Bromobutyl (4α, 8β, 13β) 13-Methyl-16-oxo-17-norkauran-18-oate] | – | 2.23 | 2.40 | – | – | 0.91 | – | – | – | – | 29.1 | 13 | – | – | 31.3 | 34.3 | 24.6 | 18.4 | – | –
C(=C\c1c[nH]c2ccccc12)/c1ccccn1 [Compound 3, 3-[(E)-2-Pyridin-2-yl-ethenyl]-1H-indole] | 39.2 | 32.88 | 73.27 | 1.19 | 87.4 | 3.33 | 26.3 | 28.7 | 1.12 | – | – | – | – | – | – | – | – | – | – | 185 to 187
C(=C\c1c[nH]c2ccccc12)/c1ccncc1 [Compound 5, 3-[(E)-2-Pyridin-4-yl-ethenyl]-1H-indole] | 16.4 | 7.26 | 44.21 | 2.26 | 100 | 6.49 | 15.4 | 16.5 | 10.9 | – | – | – | – | preferential mitochondrial localization | – | – | – | – | – | 254 to 255
C=C1C[C@@]23CC[C@H]4[C@@](C)(CCC[C@@]4(C)C(=O)OCC[n+]4ccc(/C=C/c5c[nH]c6ccccc56)cc4)[C@@H]2CC[C@]1(O)C3.[Br-] [Compound 8, 2-{4-[(E)-2-(1H-Indol-3-yl)ethenyl]-pyridinium-1-yl}-ethyl (4α)-13-Hydroxykaur-16-en-18-oate Bromide] | – | 0.92 | 5.87 | – | – | 1.34 | – | – | – | – | 1.86 | 2.01 | – | – | 11.8 | 8.82 | 1.81 | 1.81 | – | –
C=C1C[C@@]23CC[C@H]4[C@@](C)(CCC[C@@]4(C)C(=O)OCCCC[n+]4ccccc4/C=C/c4c[nH]c5ccccc45)[C@@H]2CC[C@]1(O)C3.[Br-] [Compound 28] | – | 3.33 | 21.75 | – | – | 1.46 | – | – | – | – | 1.68 | 0.5 | – | – | 10.9 | 7.51 | 1.78 | 1.18 | – | –
C=C1C[C@@]23CC[C@H]4[C@@](C)(CCC[C@@]4(C)C(=O)OCC[n+]4ccccc4/C=C/c4c[nH]c5ccccc45)[C@@H]2CC[C@]1(O)C3.[Br-] [Compound 12, 2-{2-[(E)-2-(1H-Indol-3-yl)ethenyl]-pyridinium-1-yl}-ethyl (4α)-13-Hydroxykaur-16-en-18-oate Bromide] | – | 1.14 | 2.95 | – | – | 1.40 | – | – | – | – | 29.4 | 25.7 | – | – | 75.9 | 54.3 | 28.5 | 20.2 | – | –
CC12CCC3C(CCC4C(C)(C(=O)OCCCBr)CCCC34C)(CC1=O)C2 (stereo not drawn) [Compound 15, 3-Bromopropyl (4α, 8β, 13β) 13-Methyl-16-oxo-17-norkauran-18-oate] | – | 1.85 | 4.61 | – | – | 1.67 | – | – | – | – | 16.6 | 9 | – | – | 41.5 | 24.8 | 15.1 | 12.8 | – | –
CC12CCC3C(CCC4C(C)(C(=O)OCC[n+]5ccc(C=Cc6c[nH]c7ccccc67)cc5)CCCC34C)(CC1=O)C2.[Br-] (stereo not drawn) [Compound 9, 2-{4-[(E)-2-(1H-Indol-3-yl)-ethenyl]pyridinium-1-yl}-ethyl (4α, 8β, 13β) 13-Methyl-16-oxo-17-norkauran-18-oate Bromide] | – | 1.66 | 13.96 | – | – | 1.42 | – | – | – | – | 1.54 | 0.93 | – | – | 13 | 9.09 | 1.56 | 1.08 | – | –
